Here are results for 32 molecules from patent US9260425B2 (Genetech, Inc., priority 2011, dated 2016).

Chain of Pim-1 (P11309 whole entry): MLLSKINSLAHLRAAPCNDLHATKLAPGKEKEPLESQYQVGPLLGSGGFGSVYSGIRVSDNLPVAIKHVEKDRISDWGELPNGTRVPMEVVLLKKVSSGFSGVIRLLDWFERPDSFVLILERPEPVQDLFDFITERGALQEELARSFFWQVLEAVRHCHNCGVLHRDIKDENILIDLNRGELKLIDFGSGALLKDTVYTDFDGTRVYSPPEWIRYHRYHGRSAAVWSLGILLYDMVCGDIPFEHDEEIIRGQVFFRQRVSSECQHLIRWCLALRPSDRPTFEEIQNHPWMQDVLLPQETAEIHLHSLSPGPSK

This assay addresses Pim-1 (Homo sapiens (Human), UniProt P11309). The assay can be described thus: Pim kinase binding activity assay (Example 901), PIM-1 enzyme, Caliper microfluidic peptide phosphorylation. Type of assay: biochemical. The conditions noted are these: 20 pM PIM-1, 10 μM ATP, 1 μM FAM-peptide, 90 minutes at room temperature. The procedure: Pim Kinase Binding Activity
A fluorescent-labeled Pim-specific peptide substrate, was custom synthesized by American Peptide Company (Sunnyvale, Calif.). Reaction Buffer contained 10 mM HEPES, pH 7.2, 10 mM MgCl2, 0.01% Tween 20, 2 mM DTT. Termination Buffer contained 190 mM HEPES, pH 7.2, 0.015% Brij-35, 0.2% Coating Reagent 3 (Caliper Life Sciences, Hopkinton, Mass.), 20 mM EDTA. Separation Buffer contained 100 mM HEPES, pH 7.2, 0.015% Brij-35, 0.1% Coating Reagent 3, 1:200 Coating Reagent 8 (Caliper Life Sciences, Hopkinton, Mass.), 10 mM EDTA and 5% DMSO.
PIM reactions were carried out in a final volume of 10 μL per well in a 384-well plate. A standard enzymatic reaction, initiated by the addition of 5 μL 2×ATP and test compound to 5 μL of 2× enzyme and FAM-peptide, contained 20 pM PIM-1, 50 pM PIM-2, or 55 pM PIM-3, 1 μM FAM-peptide, and 10 μM ATP, in Reaction Buffer. After 90 minutes of incubation at room temperature, the phosphorylation reaction was stopped by the addition of 10 μL Termination Buffer. The product and substrate in each independent reaction were separated on a 12-sipper microfluidic chip (Caliper Life Sciences, Hopkinton, Mass.) run on a Caliper LC3000® (Caliper Life Sciences, Hopkinton, Mass.). The separation of product and substrate was optimized by choosing voltages and pressure using Caliper's Optimizer software (Hopkinton, Mass.). […] The product and substrate fluorophore were excited at 488 nm and detected at 530 nm. Substrate conversion was calculated from the electropherogram using HTS Well Analyzer software (Caliper Life Sciences, Hopkinton, Mass.). Ki values for the test compound were calculated.
The molecule `N[C@H]1CCCN(c2cncc(-c3cc4c(-c5ccccc5F)n[nH]c4cn3)c2)C1` [Example 180, (S)-1-(5-(3-(2-fluorophenyl)-1H-pyrazolo[3,4-c]pyridin-5-yl)pyridin-3-yl)piperidin-3-amine] had a Ki of 0.264 nM.

Turning to `CN1CCN(c2cc3c(-c4ccccc4)n[nH]c3cn2)CC1=O` [Example 330, 1-methyl-4-(3-phenyl-1H-pyrazolo[3,4-c]pyridin-5-yl)piperazin-2-one], the affinity, expressed as Ki, was 660 nM.

The molecule `Cn1cc(-c2cc3c(-c4cccc(N5CCC(N)(C(F)(F)F)C5)n4)n[nH]c3cn2)cn1` (centres unmarked) [Example 286, 1-(6-(5-(1-methyl-1H-pyrazol-4-yl)-1H-pyrazolo[3,4-c]pyridin-3-yl)pyridin-2-yl)-3-(trifluoromethyl)pyrrolidin-3-amine] came in with a Ki of 0.093 nM.

Molecule `NC(=O)c1ccnc(-c2n[nH]c3cnc(-c4cccnc4)cc23)c1` [Example 302, 2-(5-(pyridin-3-yl)-1H-pyrazolo[3,4-c]pyridin-3-yl)isonicotinamide] showed a Ki of 6 nM.

The molecule `O=C1CN(c2cc3c(-c4cccc(N5CCNCC5)n4)n[nH]c3cn2)CCN1` [Example 335, 4-(3-(6-(piperazin-1-yl)pyridin-2-yl)-1H-pyrazolo[3,4-c]pyridin-5-yl)piperazin-2-one] gave an inhibitory constant (Ki) of 12.6 nM.

In the case of `Cn1cc(-c2cc3c(-c4cccc(N5CCC(O)CC5)n4)n[nH]c3cn2)cn1` [Example 294, 1-(6-(5-(1-methyl-1H-pyrazol-4-yl)-1H-pyrazolo[3,4-c]pyridin-3-yl)pyridin-2-yl)piperidin-4-ol], the Ki is 0.168 nM.

Molecule `NC1CCN(c2cc(-c3n[nH]c4cnc(-c5cccnc5)cc34)ccn2)CC1` [Example 160] gave a Ki of 2.78 nM.

The molecule `Cn1cc(-c2cc3c(-c4cccc(NC5CCNCC5)n4)n[nH]c3cn2)cn1` [Example 200, 6-(5-(1-methyl-1H-pyrazol-4-yl)-1H-pyrazolo[3,4-c]pyridin-3-yl)-N-(piperidin-4-yl)pyridin-2-amine] had an inhibition constant (Ki) of 0.092 nM.

`NC(=O)Cc1cc2c(-c3cccc(N4CCNCC4)n3)n[nH]c2cn1` [Example 253, 2-(3-(6-(piperazin-1-yl)pyridin-2-yl)-1H-pyrazolo[3,4-c]pyridin-5-yl)acetamide] showed an inhibition constant (Ki) of 171 nM.

`NC1CCN(C(=O)C2CCN(c3n[nH]c4cnc(-c5cccnc5)cc34)C2=O)CC1` (centres unmarked) [Example 325, 3-(4-aminopiperidine-1-carbonyl)-1-(5-(pyridin-3-yl)-1H-pyrazolo[3,4-c]pyridin-3-yl)pyrrolidin-2-one]: the affinity, expressed as Ki, was 106 nM.

As to `NC1CCN(Cc2n[nH]c3cnc(-c4cccnc4)cc23)CC1` [Example 106, 1-((5-(pyridin-3-yl)-1H-pyrazolo[3,4-c]pyridin-3-yl)methyl)piperidin-4-amine], the inhibitory constant (Ki) turned out to be 1400 nM.

Molecule `N[C@H]1C[C@@H](F)CN(c2cccc(-c3n[nH]c4cnc(-c5cccnc5)cc34)n2)C1` [Example 321, (3S,5R)-5-fluoro-1-(6-(5-(pyridin-3-yl)-1H-pyrazolo[3,4-c]pyridin-3-yl)pyridin-2-yl)piperidin-3-amine] came in with an inhibition constant Ki of 0.0662 nM.

`NCC1CCN(c2cccc(-c3n[nH]c4cnc(-c5cccnc5)cc34)n2)CC1` [Example 278, (1-(6-(5-(pyridin-3-yl)-1H-pyrazolo[3,4-c]pyridin-3-yl)pyridin-2-yl)piperidin-4-yl)methanamine] yielded a Ki of 0.1 nM.

Regarding `Cc1ccc(-c2n[nH]c3cnc(-c4cnn(C)c4)cc23)nc1N1CCC[C@@H](O)C1` [Example 418, (R)-1-(3-methyl-6-(5-(1-methyl-1H-pyrazol-4-yl)-1H-pyrazolo[3,4-c]pyridin-3-yl)pyridin-2-yl)piperidin-3-ol], affinity was put at a Ki of 0.11 nM.

`CCn1cc(-c2cc3c(-c4ccc(Br)c(N5CCC[C@H](N)C5)n4)n[nH]c3cn2)cn1` [Example 403, (S)-1-(3-bromo-6-(5-(1-ethyl-1H-pyrazol-4-yl)-1H-pyrazolo[3,4-c]pyridin-3-yl)pyridin-2-yl)piperidin-3-amine] yielded an inhibition constant (Ki) of 0.04 nM.

`NC1CCCN(c2cncc(-c3n[nH]c4cnc(-c5cccnc5)cc34)c2)CC1` (centres unmarked) [Example 169, 1-(5-(5-(pyridin-3-yl)-1H-pyrazolo[3,4-c]pyridin-3-yl)pyridin-3-yl)azepan-4-amine] came in with a Ki of 1.35 nM.

`OCCN1CCN(c2cccc(-c3n[nH]c4cnc(-c5cccnc5)cc34)n2)CC1` [Example 282, 2-(4-(6-(5-(pyridin-3-yl)-1H-pyrazolo[3,4-c]pyridin-3-yl)pyridin-2-yl)piperazin-1-yl)ethanol] had an inhibition constant Ki of 0.164 nM.

In turn, `Cn1cc(-c2cc3c(-c4cccc(NCC5CCNCC5)n4)n[nH]c3cn2)cn1` [Example 183, 6-(5-(1-methyl-1H-pyrazol-4-yl)-1H-pyrazolo[3,4-c]pyridin-3-yl)-N-(piperidin-4-ylmethyl)pyridin-2-amine] showed a Ki of 0.426 nM.

For the molecule `Cn1cc(-c2cc3c(-c4cccc(N5C[C@@H]6C[C@H]5CN6)n4)n[nH]c3cn2)cn1` [Example 216, 3-(6-((1S,4S)-2,5-diazabicyclo[2.2.1]heptan-2-yl)pyridin-2-yl)-5-(1-methyl-1H-pyrazol-4-yl)-1H-pyrazolo[3,4-c]pyridine], the affinity, expressed as Ki, was 0.126 nM.

Molecule `N[C@H]1CCCCN(c2cccc(-c3n[nH]c4cnc(-c5cnn(CCF)c5)cc34)n2)C1` [Example 519, (S)-1-(6-(5-(1-(2-fluoroethyl)-1H-pyrazol-4-yl)-1H-pyrazolo[3,4-c]pyridin-3-yl)pyridin-2-yl)azepan-3-amine] displayed a Ki of 0.025 nM.

`N[C@H]1CCC[C@H](Nc2cccc(-c3n[nH]c4cnc(-c5cccnc5)cc34)n2)C1` [Example 353, (1S,3S)-N1-(6-(5-(pyridin-3-yl)-1H-pyrazolo[3,4-c]pyridin-3-yl)pyridin-2-yl)cyclohexane-1,3-diamine] had a Ki of 0.397 nM.

In turn, `Cn1cc(-c2cc3c(-c4ccnc(N5CCCCC5)n4)n[nH]c3cn2)cn1` [Example 360, 5-(1-methyl-1H-pyrazol-4-yl)-3-(2-(piperidin-1-y1)pyrimidin-4-yl)-1H-pyrazolo[3,4-c]pyridine] yielded an inhibition constant Ki of 0.366 nM.

As for `FC(F)(F)Cn1cc(-c2cc3c(-c4cccc(N5CCNCC5)n4)n[nH]c3cn2)cn1` [Example 488, 3-(6-(piperazin-1-yl)pyridin-2-yl)-5-(1-(2,2,2-trifluoroethyl)-1H-pyrazol-4-yl)-1H-pyrazolo[3,4-c]pyridine], affinity was put at a Ki of 0.022 nM.

On to `N[C@H]1CCCN(c2nc(-c3n[nH]c4cnc(-c5cccnc5)cc34)ccc2Cl)C1` [Example 265, (S)-1-(3-chloro-6-(5-(pyridin-3-yl)-1H-pyrazolo[3,4-c]pyridin-3-yl)pyridin-2-yl)piperidin-3-amine], for which the inhibition constant (Ki) turned out to be 0.019 nM.

In turn, `N[C@H]1CCC[C@@H](Nc2cccc(-c3n[nH]c4cnc(-c5cccnc5)cc34)n2)C1` [Example 340, (1R,3S)-N1-(6-(5-(pyridin-3-yl)-1H-pyrazolo[3,4-c]pyridin-3-yl)pyridin-2-yl)cyclohexane-1,3-diamine] registered a Ki of 0.044 nM.

`N#CCn1cc(-c2cc3c(-c4cccc(N5CCNCC5)n4)n[nH]c3cn2)cn1` [Example 473, 2-(4-(3-(6-(piperazin-1-yl)pyridin-2-yl)-1H-pyrazolo[3,4-c]pyridin-5-yl)-1H-pyrazol-1-yl)acetonitrile] returned a Ki of 0.022 nM.

Molecule `N[C@H]1CCCN(c2cccc(-c3n[nH]c4cnc(-n5ccnc5)cc34)n2)C1` [Example 380, (S)-1-(6-(5-(1H-imidazol-1-yl)-1H-pyrazolo[3,4-c]pyridin-3-yl)pyridin-2-yl)piperidin-3-amine] gave an inhibitory constant (Ki) of 0.523 nM.

Molecule `Cc1ccc(-c2n[nH]c3cnc(-c4cnn(C)c4)cc23)nc1N1CCC[C@H](O)C1` [Example 441, (S)-1-(3-methyl-6-(5-(1-methyl-1H-pyrazol-4-yl)-1H-pyrazolo[3,4-c]pyridin-3-yl)pyridin-2-yl)piperidin-3-ol] returned a Ki of 0.062 nM.

`Cn1cc(-c2cc3c(-c4cccc(N5CCOCC5)n4)n[nH]c3cn2)cn1` [Example 420, 4-(6-(5-(1-methyl-1H-pyrazol-4-yl)-1H-pyrazolo[3,4-c]pyridin-3-yl)pyridin-2-yl)morpholine] registered a Ki of 0.368 nM.

`NC1CCCN(c2cccc(-c3n[nH]c4cnc(-c5cccnc5)cc34)n2)CC1` (centres unmarked) [Example 197, 1-(6-(5-(pyridin-3-yl)-1H-pyrazolo[3,4-c]pyridin-3-yl)pyridin-2-yl)azepan-4-amine] displayed a Ki of 0.038 nM.

Regarding `Fc1ccccc1-c1n[nH]c2cnc(-c3cnccn3)cc12` [Example 219, 3-(2-fluorophenyl)-5-(pyrazin-2-yl)-1H-pyrazolo[3,4-c]pyridine], affinity was put at a Ki of 33.5 nM.

`N[C@@H]1CCN(c2cncc(-c3cc4c(-c5ccccc5F)n[nH]c4cn3)c2)C1` [Example 192, (R)-1-(5-(3-(2-fluorophenyl)-1H-pyrazolo[3,4-c]pyridin-5-yl)pyridin-3-yl)pyrrolidin-3-amine] yielded a Ki of 0.511 nM.

For orientation: Ki means the equilibrium dissociation constant of an inhibitor or competing ligand from its target.
